Reference: ChEMBL document CHEMBL3988442, “University of Dundee, Small-Polar-MMV Screening Library” (2021)

molecular target: Tryptophan--tRNA ligase (Mycobacterium tuberculosis (strain ATCC 25618 / H37Rv), UniProt P9WFT3); assay: Biochemical assay for Mt-TrpRS; type: functional
Sequence (P9WFT3 whole entry): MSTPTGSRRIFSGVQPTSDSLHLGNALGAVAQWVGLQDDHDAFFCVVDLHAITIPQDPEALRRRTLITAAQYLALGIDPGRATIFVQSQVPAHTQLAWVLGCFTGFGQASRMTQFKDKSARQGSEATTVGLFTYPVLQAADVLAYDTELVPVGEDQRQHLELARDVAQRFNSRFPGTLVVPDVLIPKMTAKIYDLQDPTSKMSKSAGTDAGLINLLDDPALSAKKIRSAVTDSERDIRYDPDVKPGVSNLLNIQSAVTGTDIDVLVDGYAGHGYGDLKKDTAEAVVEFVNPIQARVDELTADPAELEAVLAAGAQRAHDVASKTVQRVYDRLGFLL

| SMILES | IC50 |
| --- | --- |
| CC(=O)N1CCC(C(=O)N2CCC2c2nc(-c3ccc(C)s3)no2)CC1 (stereo unspecified) | > 195 µM |
| CCN(CC)S(=O)(=O)N1CCCC(c2ncc3c(n2)CCN(C)C3)C1 (stereo unspecified) | > 195 µM |
| CN(C)C(=O)c1cncnc1-c1ccc(CNC(=O)C2CCCO2)cc1 (stereo unspecified) | > 195 µM |
| CC(C)C(NC(=O)C1CCCC1)c1cc(O)nc(-c2cccnc2)n1 (stereo unspecified) | > 195 µM |
| C=Cn1ncc(CN2CCC(c3ncc(Cl)cc3S(C)(=O)=O)CC2)c1C | > 195 µM |
| NC(=O)CN1CCCC(Cc2ccc(N3CCOCC3)nn2)C1 (stereo unspecified) | > 195 µM |
| COCCn1cnnc1C1CCCN(C(C)C)C1 (stereo unspecified) | > 195 µM |
| Cn1nccc1C(=O)N1CCCC1c1[nH]ncc1C(N)=O (stereo unspecified) | > 195 µM |
| Cc1cc(N2CCC(c3n[nH]c4nccnc34)C2)ncn1 (stereo unspecified) | > 195 µM |
| c1ccc(N2CCOC(Cc3cccnc3)C2)cc1 (stereo unspecified) | > 195 µM |
| Cn1ccc(C(=O)N2CCCC2c2[nH]ncc2C(N)=O)n1 (stereo unspecified) | > 195 µM |
| Cc1cc(N2CCC(c3n[nH]c4nccnc34)CC2)ncn1 | > 195 µM |
| Cc1cncc(C2CCN(C(=O)CCc3ccnn3C)CC2)n1 | > 195 µM |
| Nc1nccnc1C1CN(C(=O)c2ccnnc2)CCO1 (stereo unspecified) | > 195 µM |
| NC(=O)CN1CCCC(Cc2ccc(N)nn2)C1 (stereo unspecified) | > 195 µM |
| Cn1ccc(C(=O)N2CCOC(c3ccccn3)C2)cc1=O (stereo unspecified) | > 195 µM |
| COc1cccc(-c2ccnc(C3CCNCC3)c2)c1 | > 195 µM |
| COCCc1ncc(CNC2(c3ccc(Cl)cc3Cl)CC2)cn1 | > 195 µM |
| COc1ccccc1C1=NOC(CC2(C(=O)O)CCOCC2)C1 (stereo unspecified) | > 195 µM |
| CN(C)CC(=O)N1C[C@@H]2CC[C@H](Oc3ccccc3)[C@@H]2C1 | > 195 µM |
| CCOCC(=O)N1C[C@@H]2CC[C@H](Oc3ccccc3)[C@@H]2C1 | > 195 µM |
| O=C(O)c1ccccc1CN1CCOC(CCc2ccncn2)C1 (stereo unspecified) | > 195 µM |
| CS(=O)(=O)NC[C@]1(O)CCN(C(=O)Cc2cccs2)C[C@H]1O | > 195 µM |

| SMILES | IC50 |
| --- | --- |
| c1ccc(CO[C@H]2C[C@@H]3CN(Cc4cccnc4)C[C@@H]3C2)cc1 | > 195 µM |
| COCCN1CCN(Cc2cnc(C(C)C)nc2)CC1 | > 195 µM |
| O[C@H]1CN(Cc2cccc(C(F)(F)F)c2)CC[C@@]12CCCO2 | > 195 µM |
| O=C(N[C@@H]1CCC[C@@H](N2CCCC2)[C@@H]1O)c1cc2ccccc2[nH]1 | > 195 µM |
| O=S(=O)(c1cccs1)N1CCCC(c2nccs2)C1 (stereo unspecified) | > 195 µM |
| Cc1noc(C2(C)CCCN(C(=O)c3cccnc3)C2)n1 (stereo unspecified) | > 195 µM |
| O=C(CCc1cccnc1)N1CCC(c2cnccn2)CC1 | > 195 µM |
| O=C(CCn1ccnc1)N1C[C@@H](O)[C@H](Oc2cccc(F)c2)C1 | > 195 µM |
| Cc1c(C(=O)N2CCC(O)(CN(C)C)C2)c2ccccc2n1C (stereo unspecified) | > 195 µM |
| Cc1cc(C)nc(C2CCN(C(=O)c3cncnc3C)C2)n1 (stereo unspecified) | > 195 µM |
| CCCC(=O)N1CCCCC1c1nccc(C)n1 (stereo unspecified) | > 195 µM |
| Cc1nc(Nc2nncs2)cc(C2CCCN2C)n1 (stereo unspecified) | > 195 µM |
| CN1CCC(c2cncc(-c3cccc(Cl)c3)n2)CC1 | > 195 µM |
| CC(=O)N1CCCC(c2ccnc(N(C)C)n2)C1 (stereo unspecified) | > 195 µM |
| Cc1nc(Nc2ncccn2)cc(C2CCCN2C)n1 (stereo unspecified) | > 195 µM |
| NC(=O)CN1CCOCC(Cc2ccccc2Cl)C1 (stereo unspecified) | > 195 µM |
| COCC(=O)N1CCC(C(=O)c2cc(C)cnc2N)CC1 | > 195 µM |
| Cn1ccc(C(=O)N2CCCC(c3cc(O)n(C)n3)C2)n1 (stereo unspecified) | > 195 µM |
| O=C(Cn1cccnc1=O)NC(Cc1ccsc1)c1nccs1 (stereo unspecified) | > 195 µM |
| Cc1cc(-c2cnn(CCNC(=O)Cc3ccccn3)c2C2CC2)on1 | > 195 µM |
| Cc1cccc(CN2CCC(c3nnsc3S(C)(=O)=O)CC2)c1 | > 195 µM |
| CS(=O)(=O)c1snnc1C1CCN(Cc2cccnc2)CC1 | > 195 µM |
| Cc1ccc2cc(CNCCN3CCCC3)c(=O)[nH]c2c1 | > 195 µM |

| SMILES | IC50 |
| --- | --- |
| CS(=O)(=O)N1CCCC(Cc2cncc(Br)c2)CC1 (stereo unspecified) | > 195 µM |
| CNc1cccc(C2CCCN(C(=O)c3cccnc3)C2)n1 (stereo unspecified) | > 195 µM |
| CN1CCCC(CCCc2cccnc2)(C(N)=O)C1 (stereo unspecified) | > 195 µM |
| Cc1cccc(CN2CCCC2c2cccc(CCC(=O)O)n2)c1 (stereo unspecified) | > 195 µM |
| O[C@@H]1CN(Cc2ccncc2)C[C@H]1Oc1ccccc1 | > 195 µM |
| COc1ccc(S(=O)(=O)N2CCC(O)(CN(C)C)C2)cc1 (stereo unspecified) | > 195 µM |
| Cc1cncc(CN2C[C@@H](O)[C@H](Oc3ccccc3)C2)c1 | > 195 µM |
| Cc1ccc(S(=O)(=O)N2CCC(O)(CN(C)C)C2)cc1 (stereo unspecified) | > 195 µM |
| Cn1ccc(C(=O)N2CCC(Cc3cnc4[nH]ccc4c3)C2)n1 (stereo unspecified) | > 195 µM |
| CNc1cccc(C2CCCN(C(=O)c3ccn(C)n3)C2)n1 (stereo unspecified) | > 195 µM |
| O=C(c1ccccn1)N1CCC(Cc2cnc3[nH]ccc3c2)CC1 | > 195 µM |
| CN(C)CC1(O)CCN(S(=O)(=O)c2cccc(F)c2)C1 (stereo unspecified) | > 195 µM |
| Cc1ccccc1-c1cncc(C2CCN(CCO)CC2)n1 | > 195 µM |
| Cc1cccc(C2CCCN(C(=O)c3ccncc3)C2)n1 (stereo unspecified) | > 195 µM |
| CCc1cc(O)nc(C2CCCN2C(=O)COC)n1 (stereo unspecified) | > 195 µM |
| COCC(=O)N1CCOC(c2ccc(N(C)C)cn2)C1 (stereo unspecified) | > 195 µM |
| Cc1csc(Nc2nccnc2C2CCCN2CC(N)=O)n1 (stereo unspecified) | > 195 µM |
| COc1cccc(C(=O)NC(c2ccccn2)[C@H]2CC[C@H](CN)CC2)c1 (stereo partly specified) | > 195 µM |
| CO[C@H]1CN(Cc2ccc(F)c(F)c2)C[C@@]12CCCO2 | > 195 µM |
| O=C(Cc1cccs1)N1CCC(O)(CN2CCc3ccccc3C2)C1 (stereo unspecified) | > 195 µM |
| CNc1cncc(C2CCCN2Cc2cccc(C)n2)n1 (stereo unspecified) | > 195 µM |
| CC1CCCCN1c1nc2c(c(=O)[nH]1)CCN(Cc1ccccc1O)C2 (stereo unspecified) | > 195 µM |
| COCCC(=O)N1CCCC1c1csc(Nc2ccccn2)n1 (stereo unspecified) | > 195 µM |

| SMILES | IC50 |
| --- | --- |
| CCn1cc(CN2CCC(c3[nH]ncc3S(C)(=O)=O)C2)cn1 (stereo unspecified) | > 195 µM |
| COCC(=O)N1CCCC(c2cccc(-n3ccnc3)n2)C1 (stereo unspecified) | > 195 µM |
| Cc1cc2cc(C(=O)N3C[C@H](O)[C@]4(CCCO4)C3)ccc2o1 | > 195 µM |
| CN(C)C(=O)CN1CCO[C@H]2CN(Cc3ccoc3)C[C@H]21 | > 195 µM |
| Cc1nc(CN2CCC3(C2)CN(Cc2ccco2)C3)cs1 | > 195 µM |
| CS(=O)(=O)N1C[C@@H]2CCN(C(=O)c3cscn3)[C@@H]2C1 | > 195 µM |
| CCN(C(=O)c1nc2c(s1)CCCN2C)C(C)C | > 195 µM |
| O=C1CO[C@@H]2CN(S(=O)(=O)c3ccc(F)cc3)C[C@H]2N1 | > 195 µM |
| COCc1cncc2c1CCN(C(=O)c1cscn1)C2 | > 195 µM |
| c1cn(-c2cncc(C3CCNCC3)n2)cn1 | > 195 µM |
| Fc1ccccc1OCCc1cc(C2CNCCO2)n[nH]1 (stereo unspecified) | > 195 µM |
| O=C(c1cc2c(s1)CCCC2)N1CCc2nc(C3CCCN3)ncc2C1 (stereo unspecified) | > 195 µM |
| c1cn(-c2cnc(C3CCNCC3)cn2)cn1 | > 195 µM |
| Fc1ccc2c(c1)C1(CCNCC1)CC2NC1CC1 (stereo unspecified) | > 195 µM |
| Cn1cc(C(=O)NCc2cncc3c2CCN(CC2CC2)C3)cn1 | > 195 µM |
| Cn1cc(C(=O)NCc2cncc3c2CCN(c2ccccn2)C3)cn1 | > 195 µM |
| Cn1cc(C(=O)NCc2cncc3c2CCNC3)cn1 | > 195 µM |
| CC(C)N(C)Cc1cncc2c1CCN(CC(=O)N(C)C)C2 | > 195 µM |
| Cn1cnc(S(=O)(=O)N2CC3(CCN(c4ccccc4)C3)C2)c1 | > 195 µM |
| c1cncc(CN2CCN3C[C@H](Oc4cncnc4)C[C@H]3C2)c1 | > 195 µM |
| COCC1CC2(CCN(Cc3nccs3)CC2)CN1Cc1ccccn1 (stereo unspecified) | > 195 µM |
| Cc1nc(C2CCN(Cc3ncc[nH]3)CC2)no1 | > 195 µM |
